{"source": "patent US11059855B2", "about": "“Antimicrobial peptides and methods of making and using same” (priority 2017, dated 2021)", "key": {"[1]": {"assay": "ANTS/DPX leakage assay, POPG", "assay_type": "biochemical", "conditions": "P:L = 1:1000, pH 7 phosphate buffer", "experimental": "(§1) 5 mM ANTS and 12.5 mM DPX were entrapped in 0.1 μm diameter extruded vesicles with lipids. Gel filtration chromatography of Sephadex G-100 (GE Healthcare Life Sciences Inc.) was used to remove external free ANTS/DPX from LUVs with entrapped contents. […] Leakage was measured after 3 hr incubation. 10% Triton was used as the positive control to measure the maximum leakage of the vesicle. Fluorescence emission spectra were recorded using excitation wavelength (Ex: 350 nm) and emission wavelength (Em: 510 nm) for ANTS/DPX using Synergy H1 Hybrid Multi-Mode Reader.\n(§2) This detects and quantifies the release of a small fluorescent dye (ANTS/DPX; MW=˜400 Da) encapsulated in LUVs after addition of library peptides. Neutral POPC LUVs serve as a simple model for mammalian membranes, while charged POPG LUVs mimic bacterial membranes enriched in anionic lipids."}, "[2]": {"conditions": "provided by the distributor, GenScript; cited from earlier work"}, "[3]": {"assay": "Circular dichroism secondary structure (Dichroweb), with POPC", "assay_type": "physicochemical", "experimental": "(§3) Dichroweb software analyzes the secondary structure of LDKA peptides from circular dichroism spectroscope. The table presents the percentage of each helix and strand structure at different temperature. The data are analyzed using CONTIN-LL method and Reference Set 4 (Optimised for 190-240 nm).\n(§4) Peptide solutions (peptide concentration is 50 μM) were titrated with POPC and POPG LUVs (50, 100, 250, 500, 1000 μM) and the corresponding changes CD spectra collected. Analysis of these spectra using CD tools and Dichroweb provides an ensemble average of the changes in secondary structure in the presence of POPC and POPG LUVs (dichroweb.cryst.bbk.ac.uk), which gives a direct measure of the binding free energies for each peptide."}, "[4]": {"assay": "Pore-size characterization by 3-kDa dextran release", "assay_type": "biochemical", "conditions": "‡Large pore for PG only", "description": "Eight LDKA peptides with different lipid selectivity and pore sizes were selected from the high-throughput screen and sequenced. […] The most common mutation is L to A, occurred 13 times and in 7 out of the 8 peptides, followed by A to L, which occurred 6 times in 5 peptides, L to D which occurred 3 times in 3 peptides, and L to P that occurred once. Lysine (K) is not favorable to be shown at the position 6, 8, 10, 12, and 13, which is the non-polar face of the helical structure. […] More specifically, the analogs only induce leakage from anionic POPG vesicles have 4-5 leucines, which is less than the analogs that can porate both POPC and POPG vesicles and have 6-7 leucines in their sequences."}, "[5]": {"assay": "Membrane selectivity from high-throughput dye leakage screen", "assay_type": "biochemical", "conditions": "PC = POPC, PG = POPG", "description": "as §2"}, "[6]": {"assay": "3-kDa dextran macromolecule release assay, POPG", "assay_type": "biochemical", "conditions": "P:L = 1:1000, pH 7 phosphate buffer"}, "[7]": {"assay": "Circular dichroism secondary structure (Dichroweb), with POPG", "assay_type": "physicochemical", "experimental": "as §3, §4"}, "S. aureus": {"test_system": "S. aureus", "assay": "Bacterial minimum inhibitory concentration (MIC), S. aureus", "assay_type": "cell-based, Staphylococcus aureus", "conditions": "75 μM maximum tested; NDA = not determinable", "experimental": "(§5) Escherichia colt strain ATCC 25922, Staphylococcus aureus strain ATCC 25923, and Pseudomonas aeruginosa strain ATCC PAO1 were used in this study. Overnight cultures were subcultured to log phase (OD600=0.3-0.6) after which cell counts were determined by measuring the OD600 (OD600 1.0=1.5×10^8 CFU/mL for S. aureus, 5×10^8 CFU/mL for E. colt, and 2.04×10^8 CFU/mL for P. aeruginosa). Bacteria in minimal media mere added to serially diluted peptides and incubated for 3 hr, followed by the addition of full growth media. After overnight incubation, the optical density of the wells was recorded on a plate reader to determine whether they were sterilized (OD<0.08) or were at stationary phase growth (OD600>0.5). Intermediate values, which were rare, were considered positive for growth. Average minimum sterilizing concentrations were calculated from the lowest peptide concentration that sterilized the bacteria in each serial dilution. The samples were done in sextuplet."}, "Escherichia coli biofilm": {"test_system": "Escherichia coli biofilm", "assay": "Activity against biofilm, E. coli", "assay_type": "cell-based", "conditions": "67-150 μM peptide, 3 hr treatment", "experimental": "Selected analogues were tested with each (13A). Escherichia coli biofilm, (13B). Staphylococcus aureus biofilm, and (13C) Pseudomonas aeruginosa biofilm.\nHowever, most of the LDKA analogues fail to treat S. aureus and P. aeruginosa biofilms. Only K7H and 7F3 are capable to reduce S. aureus biofilms by ˜50% with 100 μM peptide concentration, and none of the analogues work against P. aeruginosa biofilms (FIGS. 13a-13c)."}, "P. aeruginosa": {"test_system": "P. aeruginosa", "assay": "Bacterial minimum inhibitory concentration (MIC), P. aeruginosa", "assay_type": "cell-based, Pseudomonas aeruginosa", "conditions": "75 μM maximum tested; NDA = not determinable", "experimental": "as §5"}, "[8]": {"assay": "ANTS/DPX leakage assay, POPC", "assay_type": "biochemical", "conditions": "P:L = 1:1000, pH 7 phosphate buffer", "experimental": "as §1, §2"}, "[9]": {"assay": "Circular dichroism secondary structure (Dichroweb), peptide only", "assay_type": "physicochemical", "conditions": "20 °C", "experimental": "as §3, §4"}, "[10]": {"test_system": "methicillin-resistant Staphylococcus aureus (MRSA)", "assay_type": "cell-based", "conditions": "75 μM maximum tested; NDA = not determinable"}, "Hemolysis assay": {"assay": "Hemolysis assay", "assay_type": "cell-based, human", "conditions": "human", "experimental": "Fresh human red blood cells were obtained from Interstate Blood Bank, Inc., and thoroughly washed in PBS until the supernatant was clear. hRBC concentration was determined using a standard hemocytometer. In hemolysis assays serial dilutions of peptide were prepared, followed by the addition of 2×10^8 hRBC/mL. After incubation for 1 hr at 37° C. the cells were centrifuged and the released hemoglobin was measured by optical absorbance of the heme group (410 nm). Negative control was buffer only (0% lysis), and the positive control was 20 μM melittin and distilled water (100% lysis). The samples were done in triplicate."}, "[11]": {"assay": "3-kDa dextran macromolecule release assay, POPC", "assay_type": "biochemical", "conditions": "P:L = 1:1000, pH 7 phosphate buffer", "experimental": "Several different size dextrans were prepared and labelled with both TAMRA and biotin. Conjugated dextran was entrapped in POPC LUVs as described above. External dextran was removed by incubation with immobilized streptavidin. Streptavidin labelled with an Alexa-488 fluorophore was added during the leakage experiment with the peptide as previous described.^5 The sample was then incubated for 3 hr before measuring Alexa-488 fluorescence. A control without added peptide served as the 0% leakage signal and addition of 0.05% vol. Triton X-100 was used to determine 100% leakage."}, "[12]": {"test_system": "ciprofloxacin-resistant E. coli", "experimental": "“N.D.” means “not determined”.\nCeftazidime is active on the bacteria's cell wall and interferes with bacterial cell wall formation.^38,39 Ciprofloxacin is able to inhibit DNA gyrase, type II topoisomerase, and topoisomerase IV to separate bacterial DNA and inhibits cell division.^40 Streptomycin and gentamicin are antibiotics that can interrupt and inhibit protein synthesis.^41,42 E. coli strain ATCC 25922 cultures were grown in the presence of each of these antibiotics at elevated concentration for 10 generations."}}}
{"substance": "H-GLADAAKLLLKAAGW-NH2 [Peptide 11D12]", "values": [{"measurement": "ANTS/DPX release, POPG", "setting": "[1]", "value": 101, "unit": "%"}, {"measurement": "Solubility, DMSO", "setting": "[2]", "value": 20, "unit": "mg/mL"}, {"measurement": "Solubility, DPBS pH 7.1", "setting": "[2]", "value": 10, "unit": "mg/mL"}, {"measurement": "Solubility, Ultrapure Water", "setting": "[2]", "value": 10, "unit": "mg/mL"}, {"measurement": "Peptide-POPC, Helix", "setting": "[3]; 20 °C", "value": 38, "unit": "%"}, {"measurement": "Peptide-POPC, Strand", "setting": "[3]; 20 °C", "value": 12, "unit": "%"}, {"measurement": "Peptide-POPC, Helix", "setting": "[3]; 45 °C", "value": 39, "unit": "%"}, {"measurement": "Peptide-POPC, Strand", "setting": "[3]; 45 °C", "value": 10, "unit": "%"}, {"measurement": "Peptide-POPC, Helix", "setting": "[3]; 70 °C", "value": 39, "unit": "%"}, {"measurement": "Peptide-POPC, Strand", "setting": "[3]; 70 °C", "value": 9, "unit": "%"}, {"measurement": "Peptide-POPC, Helix", "setting": "[3]; 95 °C", "value": 33, "unit": "%"}, {"measurement": "Peptide-POPC, Strand", "setting": "[3]; 95 °C", "value": 12, "unit": "%"}, {"measurement": "Pore size", "setting": "[4]", "value": "Large"}, {"measurement": "Membrane selectivity (POPC vs POPG vesicles)", "setting": "[5]", "value": "PG > PC"}, {"measurement": "3-kDa Dextran release, POPG", "setting": "[6]", "value": 58, "unit": "%"}, {"measurement": "Peptide-POPG, Helix", "setting": "[7]; 20 °C", "value": 96, "unit": "%"}, {"measurement": "Peptide-POPG, Strand", "setting": "[7]; 20 °C", "value": 0, "unit": "%"}, {"measurement": "Peptide-POPG, Helix", "setting": "[7]; 45 °C", "value": 92, "unit": "%"}, {"measurement": "Peptide-POPG, Strand", "setting": "[7]; 45 °C", "value": 0, "unit": "%"}, {"measurement": "Peptide-POPG, Helix", "setting": "[7]; 70 °C", "value": 90, "unit": "%"}, {"measurement": "Peptide-POPG, Strand", "setting": "[7]; 70 °C", "value": 0, "unit": "%"}, {"measurement": "Peptide-POPG, Helix", "setting": "[7]; 95 °C", "value": 77, "unit": "%"}, {"measurement": "Peptide-POPG, Strand", "setting": "[7]; 95 °C", "value": 1, "unit": "%"}, {"measurement": "Minimum Inhibitory Concentration, S. aureus", "setting": "S. aureus", "value": "NDA"}, {"measurement": "Elimination of E. coli biofilm", "setting": "Escherichia coli biofilm", "value": "~50", "unit": "%"}, {"measurement": "Minimum Inhibitory Concentration, P. aeruginosa", "setting": "P. aeruginosa", "value": "NDA"}, {"measurement": "ANTS/DPX release, POPC", "setting": "[8]", "value": 8, "unit": "%"}, {"measurement": "Peptide-only, Strand", "setting": "[9]", "value": 8, "unit": "%"}, {"measurement": "Minimum Inhibitory Concentration, MRSA", "setting": "[10]", "value": "NDA"}]}
{"substance": "H-GLDDLAKLLLKLAGW-NH2 [Peptide 25B2]", "values": [{"measurement": "HC50 at 1 hr", "setting": "Hemolysis assay", "value": 35.5, "unit": "µM"}, {"measurement": "ANTS/DPX release, POPG", "setting": "[1]", "value": 99, "unit": "%"}, {"measurement": "Solubility, DMSO", "setting": "[2]", "value": 15, "unit": "mg/mL"}, {"measurement": "Solubility, DPBS pH 7.1", "setting": "[2]", "value": "<0.1", "unit": "mg/mL"}, {"measurement": "Solubility, Ultrapure Water", "setting": "[2]", "value": 10, "unit": "mg/mL"}, {"measurement": "Peptide-POPC, Helix", "setting": "[3]; 20 °C", "value": 80, "unit": "%"}, {"measurement": "Peptide-POPC, Strand", "setting": "[3]; 20 °C", "value": 3, "unit": "%"}, {"measurement": "Peptide-POPC, Helix", "setting": "[3]; 45 °C", "value": 90, "unit": "%"}, {"measurement": "Peptide-POPC, Strand", "setting": "[3]; 45 °C", "value": 1, "unit": "%"}, {"measurement": "Peptide-POPC, Helix", "setting": "[3]; 70 °C", "value": 81, "unit": "%"}, {"measurement": "Peptide-POPC, Strand", "setting": "[3]; 70 °C", "value": 1, "unit": "%"}, {"measurement": "Peptide-POPC, Helix", "setting": "[3]; 95 °C", "value": 61, "unit": "%"}, {"measurement": "Peptide-POPC, Strand", "setting": "[3]; 95 °C", "value": 6, "unit": "%"}, {"measurement": "3-kDa Dextran release, POPC", "setting": "[11]", "value": -2, "unit": "%"}, {"measurement": "Pore size", "setting": "[4]", "value": "Large‡"}, {"measurement": "Membrane selectivity (POPC vs POPG vesicles)", "setting": "[5]", "value": "Non-selective"}, {"measurement": "3-kDa Dextran release, POPG", "setting": "[6]", "value": 100, "unit": "%"}, {"measurement": "Peptide-POPG, Helix", "setting": "[7]; 20 °C", "value": 98, "unit": "%"}, {"measurement": "Peptide-POPG, Strand", "setting": "[7]; 20 °C", "value": 0, "unit": "%"}, {"measurement": "Peptide-POPG, Helix", "setting": "[7]; 45 °C", "value": 98, "unit": "%"}, {"measurement": "Peptide-POPG, Strand", "setting": "[7]; 45 °C", "value": 0, "unit": "%"}, {"measurement": "Peptide-POPG, Helix", "setting": "[7]; 70 °C", "value": 93, "unit": "%"}, {"measurement": "Peptide-POPG, Strand", "setting": "[7]; 70 °C", "value": 0, "unit": "%"}, {"measurement": "Peptide-POPG, Helix", "setting": "[7]; 95 °C", "value": 87, "unit": "%"}, {"measurement": "Peptide-POPG, Strand", "setting": "[7]; 95 °C", "value": 1, "unit": "%"}, {"measurement": "MIC, ciprofloxacin-resistant E. coli", "setting": "[12]", "value": "completely fail"}, {"measurement": "Elimination of E. coli biofilm", "setting": "Escherichia coli biofilm", "value": "~50", "unit": "%"}, {"measurement": "Minimum Inhibitory Concentration, P. aeruginosa", "setting": "P. aeruginosa", "value": "NDA"}, {"measurement": "ANTS/DPX release, POPC", "setting": "[8]", "value": 98, "unit": "%"}, {"measurement": "Peptide-only, Helix", "setting": "[9]", "value": 67, "unit": "%"}, {"measurement": "Peptide-only, Strand", "setting": "[9]", "value": 3, "unit": "%"}, {"measurement": "Minimum Inhibitory Concentration, MRSA", "setting": "[10]", "value": "NDA"}]}
